{"source": "patent US20180169100A1", "about": "“Cancer Stem Cell Targeting Compounds” (Godavari Biorefineries Limited, priority 2014, published 2018)", "type_in_all_cases": "cell-based", "key": {"[1]": {"test_system": "CD44 population of PC3 cells", "assay": "Flow cytometry study, CD44/CD24 staining", "conditions": "PC3 cells exposed to IC25 drug conc. for 48 hrs; untreated 85.61% cells CD44", "description": "For Flow cytometry assay the PC3 cancer cells (0.35×106) were cultured in Dulbecco's Modified Eagle's medium (DMEM) with 10% Fetal Bovine Serum (F.B.S) in 60 mm tissue culture plates for 24 hrs in 5% CO2 at 37° C. Cells were then exposed to IC25 drug conc. of Cisplatin in duplicates. Similarly other sets of cells were treated with IC25 drug conc. of Ethyl-5,6-dimethyl-4-(piperidin-1-yl)thieno[2,3-d]pyrimidine for 48 hrs. and incubated in 5% CO2 at 37° C. for 48 hrs. Appropriate controls that is growth control (cells+DMEM medium) and solvent control (cells+control DMEM medium+DMSO) and medium control (DMEM) were also kept along with the experimental sets. After 48 hrs the cells were observed under the microscope, trypsinised, washed with Dulbecco's phosphate-buffered saline (D.P.B.S.) 50 μl of cells were taken for each set and 5 μl of each of the CD44-PE labeled and CD24-FITC labeled antibodies were added. The sets were incubated for 45 mins at 4° C. for proper binding of antibodies. After incubation the cells were washed with 200 μl of D.P.B.S by centrifugation. The supernatant was discarded and the cells were finally suspended in 300 μl of FACS buffer (4% Fetal Bovine Serum in D.P.B.S). Samples were kept at 4° C. in dark till they were acquired on FACS. Acquisition was done on BD-FACS Accuri C6."}, "MDAMB231": {"test_system": "MDAMB231", "assay": "In vitro colorimetric cell death assay (MTT)", "conditions": "MDAMB231 breast cancer cell line, 48 hours with compound, read-out: IC 50 Value", "description": "(§1) For assessing cell viability in vitro colorimetric cell death assay was carried out where the cells were grown in two-dimensional surface as follows. Cancer cells with plating efficiency as mentioned herein below for respective cell lines were plated in a 96 well plate. The plate was incubated for 24 hours in a 5% CO2 atmosphere at 37 degrees Celsius, a range of concentrations from 10^−3 M to 10^−6 M of the compound Ethyl-5,6-dimethyl-4-(piperidin-1-yl)thieno[2,3-d]pyrimidine was added to the wells, the plates were incubated further for 48 hours in a 5% CO2 atmosphere, the plate was centrifuged twice at 3000 rpm for 3 minutes, the supernatant fluid was discarded, 100 uL of 0.5 mg/mL 3-(4,5-Dimethylthiazol-2-yl)-2,5-Diphenyltetrazolium Bromide (MTT) solution was added and the plate was incubated for 4 hours in a 5% CO2 atmosphere at 37 degrees Celsius. The plate was then centrifuged twice at 3000 rpm for 3 minutes, supernatant was aspirated very carefully, 200 uL Dimethyl sulfoxide (DMSO) was added to each well to solubilize MTT crystals and mixed well by shaking the plate, the plate was incubated for 10 minutes in a 5% CO2 atmosphere at 37 degrees Celsius, the plate was placed on the shaker of an ELISA plate reader and the absorbance at 570 nm was measured, the percentage of viable cells remaining was calculated by first subtracting the background absorbance then comparing to the absorbance of a non-drug-treated cell sample, and the results were plotted on a graph to determine the IC50 for the compound Ethyl-5,6-dimethyl-4-(piperidin-1-yl)thieno[2,3-d]pyrimidine which was calculated by regression analysis."}, "DU145": {"test_system": "DU145", "assay": "In vitro colorimetric cell death assay (MTT)", "conditions": "DU145 prostate cancer cell line, 48 hours with compound, read-out: IC 50 Value", "description": "as §1"}, "Bu25tk": {"test_system": "Bu25tk", "assay": "In vitro colorimetric cell death assay (MTT)", "conditions": "Bu25tk cervical cancer cell line, 48 hours with compound, read-out: IC 50 Value", "description": "as §1"}, "Colo320": {"test_system": "Colo320", "assay": "In vitro colorimetric cell death assay (MTT)", "conditions": "Colo320 colon cancer cell line, 48 hours with compound, read-out: IC 50 Value", "description": "as §1"}, "PC3": {"test_system": "PC3", "assay": "In vitro colorimetric cell death assay (MTT)", "conditions": "PC3 prostate cancer cell line, 48 hours with compound, read-out: IC 50 Value", "description": "as §1"}, "HeLa": {"test_system": "HeLa", "assay": "In vitro colorimetric cell death assay (MTT)", "conditions": "HeLa cervical cancer cell line, 48 hours with compound, read-out: IC 50 Value", "description": "as §1"}, "MCF-7": {"test_system": "MCF-7", "assay": "In vitro colorimetric cell death assay (MTT)", "conditions": "MCF-7 breast cancer cell line, 48 hours with compound, read-out: IC 50 Value", "description": "as §1"}, "L929": {"test_system": "L929", "assay": "In vitro colorimetric cell death assay (MTT)", "conditions": "L929 fibroblast cancer cell line, 48 hours with compound, read-out: IC 50 Value", "description": "as §1"}, "LNCaP": {"test_system": "LNCaP", "assay": "In vitro colorimetric cell death assay (MTT)", "conditions": "LNCaP prostate cancer cell line, 48 hours with compound, read-out: IC 50 Value", "description": "as §1"}, "Hep3B": {"test_system": "Hep3B", "assay": "In vitro colorimetric cell death assay (MTT)", "conditions": "Hep3B hepatic cancer cell line, 48 hours with compound, read-out: IC 50 Value", "description": "as §1"}, "T47D": {"test_system": "T47D", "assay": "In vitro colorimetric cell death assay (MTT)", "conditions": "T47D breast cancer cell line, 48 hours with compound, read-out: IC 50 Value", "description": "as §1"}, "SiHa": {"test_system": "SiHa", "assay": "In vitro colorimetric cell death assay (MTT)", "conditions": "SiHa cervical cancer cell line, 48 hours with compound, read-out: IC 50 Value", "description": "as §1"}, "[2]": {"test_system": "CD44 population of DU145 cells", "assay": "Flow cytometry study, CD44/CD24 staining", "conditions": "DU145 cells exposed to IC25 drug conc. for 48 hrs; untreated 70.18% cells CD44"}, "primary spheres of DU145": {"test_system": "primary spheres of DU145", "assay": "3D Primary Sphere Assay", "conditions": "GC 49(±5), GCD 41(±4)", "description": "(§2) The ability of cancer stem cells to form spheres in a serum free media was determined by 3D Primary Sphere Assay, where the spheres were in a suspended form. Through this assay the potency of the compound Ethyl-5,6-dimethyl-4-(piperidin-1-yl)thieno[2,3-d]pyrimidine to kill cancer stem cells in comparison to the standard chemotherapeutic drug such as Cisplatin was evaluated as follows. The Cells were grown in three dimensions on a plastic substrate, harvested in suspension in serum-free media, then the cells in the sample were trypsinised and a single cell suspension was formed by passing through a cell strainer. The cells were diluted according to the predetermined plating efficiency for the cell line being studied by suspending the cells in stem cell culture medium. 100 uL of this suspension was added into each well of a 96 well suspension plate, and the plate was incubated at 37 degrees Celsius in 5% CO2 atmosphere for 24 hours, then 2 uL of appropriate concentrations of the drugs were added into each respective well along with 100 uL of stem cell culture medium, and the plates incubated at 37 degrees Celsius under 5% CO2 atmosphere for 72 hours. 2.5 uL of the appropriate drug concentration was added to each respective well along with 50 uL of stem cell culture medium and the plates were incubated at 37 degrees Celsius under 5% CO2 atmosphere for 72 hours. 3 uL of the appropriate concentration of the compound as mentioned below was added to each respective well along with 50 uL of stem cell culture medium, incubated at 37 degrees Celsius under 5% CO2 atmosphere for 72 hours, the spheres formed were observed under a microscope, counted and scored by size. Results of the in vitro 3D sphere forming stem cell assay were set forth in a tabular manner. […] GC refers to a growth control performed in the absence of drug or solvent (DMSO). GCD refers to a growth control performed in the absence of drug, but in the presence of DMSO."}, "[3]": {"test_system": "primary spheres of MDA MB231", "assay": "3D Primary Sphere Assay", "conditions": "GC 92(±7), GCD 83(±6)", "description": "as §2"}, "primary spheres of PC3": {"test_system": "primary spheres of PC3", "assay": "3D Primary Sphere Assay", "conditions": "GC 120(±10), GCD 103(±9)", "description": "as §2"}}, "data": [{"compound": "N.N.[Cl][Pt][Cl]", "note": "[Cisplatin]", "values": [{"measurement": "effect on CD44 population", "setting": "[1]", "value": "did not have much effect"}, {"measurement": "IC50", "setting": "MDAMB231", "value": 48.4, "unit": "µM"}, {"measurement": "IC50", "setting": "DU145", "value": 31.6, "unit": "µM"}, {"measurement": "IC50", "setting": "Bu25tk", "value": 59.3, "unit": "µM"}, {"measurement": "IC50", "setting": "Colo320", "value": 38.3, "unit": "µM"}, {"measurement": "IC50", "setting": "PC3", "value": 11.2, "unit": "µM"}, {"measurement": "IC50", "setting": "HeLa", "value": 33.9, "unit": "µM"}, {"measurement": "IC50", "setting": "MCF-7", "value": 29.2, "unit": "µM"}, {"measurement": "IC50", "setting": "L929", "value": 29, "unit": "µM"}, {"measurement": "IC50", "setting": "LNCaP", "value": 52.5, "unit": "µM"}, {"measurement": "IC50", "setting": "Hep3B", "value": 37.6, "unit": "µM"}, {"measurement": "IC50", "setting": "T47D", "value": 58.9, "unit": "µM"}, {"measurement": "IC50", "setting": "SiHa", "value": 35.5, "unit": "µM"}, {"measurement": "effect on CD44 population", "setting": "[2]", "value": "did not have much effect"}, {"measurement": "total number of spheres formed", "setting": "primary spheres of DU145; DU145, final conc. 1.25 μM", "value": "48(±5)"}, {"measurement": "total number of spheres formed", "setting": "primary spheres of DU145; DU145, final conc. 12.5 μM", "value": "41(±5)"}, {"measurement": "total number of spheres formed", "setting": "primary spheres of DU145; DU145, final conc. 125 μM", "value": "23(±4)"}, {"measurement": "total number of spheres formed", "setting": "primary spheres of DU145; DU145, final conc. 1250 μM", "value": "12(±3)"}, {"measurement": "total number of spheres formed", "setting": "[3]; MDA MB231, final conc. 1.25 μM", "value": "76(±8)"}, {"measurement": "total number of spheres formed", "setting": "[3]; MDA MB231, final conc. 12.5 μM", "value": "52(±6)"}, {"measurement": "total number of spheres formed", "setting": "[3]; MDA MB231, final conc. 125 μM", "value": "39(±3)"}, {"measurement": "total number of spheres formed", "setting": "[3]; MDA MB231", "value": "25(±5)"}, {"measurement": "total number of spheres formed", "setting": "primary spheres of PC3; PC3, final conc. 1.25 μM", "value": "109(±6)"}, {"measurement": "total number of spheres formed", "setting": "primary spheres of PC3; PC3, final conc. 12.5 μM", "value": "107(±9)"}, {"measurement": "total number of spheres formed", "setting": "primary spheres of PC3; PC3, final conc. 125 μM", "value": "88(±6)"}, {"measurement": "total number of spheres formed", "setting": "primary spheres of PC3; PC3", "value": "74(±7)"}]}]}
